According to US5156956A, “Transgultaminase” (Ajinomoto Co., Inc., priority 1987, dated 1992):
Residues, ends and D or L forms follow the SMILES beside them. *: point of attachment. Cbz = O=C(OCc1ccccc1)*

Columns and labels:
[1] = target: T1, BTG-3 (Streptomyces cinnamoneus, UniProt Q8GR90); experiment: Influence of metal ions on activity; assay type: biochemical; settings: metal ion 1 mM; None = 100; 30 min
T1 construct: Ca2+-independent; made as pre-pro-protein
T1 sequence (Q8GR90 86-416): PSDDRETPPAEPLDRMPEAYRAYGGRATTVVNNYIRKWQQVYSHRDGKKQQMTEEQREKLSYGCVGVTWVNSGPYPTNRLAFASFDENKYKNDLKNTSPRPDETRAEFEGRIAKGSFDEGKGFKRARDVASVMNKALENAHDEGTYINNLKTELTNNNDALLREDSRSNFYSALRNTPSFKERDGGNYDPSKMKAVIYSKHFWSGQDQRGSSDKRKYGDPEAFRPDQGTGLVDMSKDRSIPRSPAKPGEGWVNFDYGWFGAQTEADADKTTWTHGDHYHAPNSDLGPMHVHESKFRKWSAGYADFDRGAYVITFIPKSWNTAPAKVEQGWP
Method: (§1) Measurement of the activity of BTGase is carried out by performing a reaction using benzyloxycarbonyl-L-glutaminyl glycine and hydroxylamine as substrates in the absence of Ca^2+, forming an iron complex with the resulting hydroxamic acid in the presence of trichloroacetic acid, measuring absorption at 525 nm and determining the amount of hydroxamic acid by a calibration curve to calculate the activity. The BTGase activity is measured by the method described below, unless otherwise indicated.
(§2) To 0.05 ml of an enzyme solution is added 0.5 ml of Reagent A and they are mixed with each other. After reacting at 37° C. for 30 minutes, Reagent B is added thereto to discontinue the reaction and form an Fe complex. Thereafter, absorbance is measured at 525 nm. […] Separately, a calibration curve is prepared using L-glutamic acid γ-monohydroxamio acid instead of the enzyme solution, and the amount of hydroxamic acid produced is determined by the difference in absorbance described above. An enzyme activity which produces 1 μmol of hydroxamic acid per 1 minute is defined as 1 unit.

[2] = target: T2, BTG-2 (Streptomyces griseocarneus, UniProt A0ABX7RSJ1); assay type: biochemical, Streptoverticillium griseocarneum IFO 12776; settings: metal ion 1 mM; None = 100; 30 min
T2 construct: Ca2+-independent; made as pre-pro-protein
Method: as §1, §2

[3] = target: T3, BTG-1 (Streptomyces mobaraensis, UniProt P81453); experiment: Influence of metal ions on activity; assay type: biochemical, Streptoverticillium mobaraense IFO 13819; settings: metal ion 1 mM; None = 100; 30 min
T3 construct: BTGase is dissolved in the culture solution and can be harvested from the culture filtrate; endogenous in cells; host or cells: Streptoverticillium mobaraense IFO 13819 (natural producer; purified from culture filtrate)
T3 sequence (P81453 77-407): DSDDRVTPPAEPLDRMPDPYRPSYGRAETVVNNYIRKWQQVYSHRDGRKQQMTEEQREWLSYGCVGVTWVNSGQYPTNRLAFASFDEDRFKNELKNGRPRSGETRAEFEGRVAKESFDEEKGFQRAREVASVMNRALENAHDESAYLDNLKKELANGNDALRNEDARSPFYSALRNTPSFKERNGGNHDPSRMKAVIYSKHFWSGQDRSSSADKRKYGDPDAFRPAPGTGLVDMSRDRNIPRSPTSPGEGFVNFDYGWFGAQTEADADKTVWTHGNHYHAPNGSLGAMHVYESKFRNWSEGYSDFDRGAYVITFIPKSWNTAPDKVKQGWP
Method: as §1, §2

[4] = target: T2, BTG-2; experiment: Substrate specificity: synthetic substrates with hydroxylamine; assay type: biochemical, Streptoverticillium griseocarneum IFO 12776; settings: for Reactivity of substrate with BTG-2 (relative, Table 1): substrate 5 mM, with hydroxylamine; for Substrate specificity (%) BTG-2: Table 4
Method: as §1, §2
(§3) Using each BTGase, reactions of various synthetic substrates with hydroxylamine were examined. […] In this case, the concentration of various synthetic substrates is 5 mM. In the table, CBZ, Gln, Gly and Asn are abbreviations for benzyloxycarbonyl group, glutaminyl group, glycyl group and asparaginyl group, respectively.

[5] = system: BTGase; experiment: Substrate specificity, statement on all BTGases; assay type: biochemical, Streptoverticillium; settings: substrate 5 mM, with hydroxylamine
Method: as §3

[6] = target: T3, BTG-1; experiment: Substrate specificity: synthetic substrates with hydroxylamine; assay type: biochemical, Streptoverticillium mobaraense IFO 13819; settings: for Reactivity of substrate with BTG-1 (relative, Table 1): substrate 5 mM, with hydroxylamine; for Substrate specificity (%) BTG-1: Table 4
Method: as §1, §2, §3

[7] = target: T1, BTG-3; experiment: as above; assay type: biochemical; settings: for Reactivity of substrate with BTG-3 (relative, Table 1): substrate 5 mM, with hydroxylamine; for Substrate specificity (%) BTG-3: Table 4
Method: as §1, §2, §3

[8] = target: T4, MTGase (transglutaminase of guinea pig liver) (UniProt P08587); experiment: Substrate specificity: synthetic substrates; assay type: biochemical; settings: Table 4
T4 construct: from tissue; host or cells: guinea pig liver
T4 sequence (P08587 1-690): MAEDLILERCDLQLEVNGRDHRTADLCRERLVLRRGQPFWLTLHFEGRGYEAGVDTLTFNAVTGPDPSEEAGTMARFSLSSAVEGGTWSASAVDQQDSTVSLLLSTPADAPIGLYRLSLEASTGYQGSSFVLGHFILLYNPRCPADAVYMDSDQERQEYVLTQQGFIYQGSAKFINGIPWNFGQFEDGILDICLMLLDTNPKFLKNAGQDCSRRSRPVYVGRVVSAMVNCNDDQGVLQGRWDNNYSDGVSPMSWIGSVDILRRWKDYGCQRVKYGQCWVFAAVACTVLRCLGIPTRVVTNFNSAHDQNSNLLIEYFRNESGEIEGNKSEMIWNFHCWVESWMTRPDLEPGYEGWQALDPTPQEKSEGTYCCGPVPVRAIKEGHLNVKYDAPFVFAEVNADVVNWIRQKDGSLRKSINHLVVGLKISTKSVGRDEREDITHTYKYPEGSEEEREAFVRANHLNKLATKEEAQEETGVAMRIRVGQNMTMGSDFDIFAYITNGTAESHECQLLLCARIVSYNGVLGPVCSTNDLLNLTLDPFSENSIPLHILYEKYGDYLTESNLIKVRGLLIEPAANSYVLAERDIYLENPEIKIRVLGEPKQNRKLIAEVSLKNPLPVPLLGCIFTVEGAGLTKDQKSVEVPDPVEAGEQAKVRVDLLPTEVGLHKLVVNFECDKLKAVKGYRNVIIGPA
Method: Next, properties of BTGases are compared to those of guinea pig liver-derived transglutaminase. The guinea pig liver-derived transglutaminase was prepared by the method described in Published Unexamined Japanese Patent Application No. 149645/83. As will be apparent from Tables 4 and 5, various differences in enzymological properties are noted between transglutaminase of guinea pig liver (hereafter referred to as MTGase) which has been mainly investigated heretofore and BTGases derived from actinomycetes; in particular, differences are noted in temperature stability, molecular weight, isoelectric point and substrate specificity. Further, a difference is noted in that the BTGases of the present invention act in the presence and absence of Ca^2+. Therefore, the respective enzymes of the present invention are different from MTGase in their properties.

[9] = target: T3, BTG-1; experiment: biochemical; set-up: species or system Streptoverticillium mobaraense IFO 13819
Method: as §1, §2

[10] = target: T1, BTG-3; experiment: biochemical
Method: as §1, §2

[11] = target: T2, BTG-2; experiment: biochemical; set-up: species or system Streptoverticillium griseocarneum IFO 12776
Method: as §1, §2

[12] = inhibitor 1 mM, 25° C. for 30 minutes, None = 100

## [Ba+2].[Cl-].[Cl-] [BaCl2]
[1]
  BTG-3 (%) activity with metal ion: 105%
[2]
  BTG-2 (%) activity with metal ion: 99%
[3]
  BTG-1 (%) activity with metal ion: 101%

## NC(=O)C[C@H](NC(=O)OCc1ccccc1)C(=O)NCC(=O)O [CBZ--Asn--Gly, benzyloxycarbonylasparaginyl glycine] (Cbz-Asn-Gly-OH)
[4]
  Reactivity of substrate with BTG-2 (relative, Table 1): 0
[5]
  Reactivity of synthetic substrate with the BTGases (in words): No BTGase reacts
[6]
  Reactivity of substrate with BTG-1 (relative, Table 1): 0
[7]
  Reactivity of substrate with BTG-3 (relative, Table 1): 0

## NC(=O)CC[C@H](NC(=O)OCc1ccccc1)C(=O)O [CBZ--Gln, benzyloxycarbonyl glutamine]
[4]
  Reactivity of substrate with BTG-2 (relative, Table 1): 0
[5]
  Reactivity of synthetic substrate with the BTGases (in words): No BTGase reacts
[6]
  Reactivity of substrate with BTG-1 (relative, Table 1): 0
[7]
  Reactivity of substrate with BTG-3 (relative, Table 1): 0

## NC(=O)CC[C@H](NC(=O)OCc1ccccc1)C(=O)N[C@@H](CCC(N)=O)C(=O)NCC(=O)O [CBZ--Gln--Gln--Gly] (Cbz-Gln-Gln-Gly-OH)
[4]
  Substrate specificity (%) BTG-2: 39%
  Reactivity of substrate with BTG-2 (relative, Table 1): 39
[8]
  Substrate specificity (%) MTGase: 288%
[6]
  Substrate specificity (%) BTG-1: 38%
  Reactivity of substrate with BTG-1 (relative, Table 1): 38
[7]
  Substrate specificity (%) BTG-3: 35%
  Reactivity of substrate with BTG-3 (relative, Table 1): 35

## CCOC(=O)CNC(=O)[C@H](CCC(N)=O)NC(=O)OCc1ccccc1 [CBZ--Gln--Gly--OEt] (Cbz-Gln-Gly-OEt)
[4]
  Substrate specificity (%) BTG-2: 44%
  Reactivity of substrate with BTG-2 (relative, Table 1): 44
[8]
  Substrate specificity (%) MTGase: 122%
[6]
  Substrate specificity (%) BTG-1: 63%
  Reactivity of substrate with BTG-1 (relative, Table 1): 63
[7]
  Substrate specificity (%) BTG-3: 42%
  Reactivity of substrate with BTG-3 (relative, Table 1): 42

## NC(=O)CC[C@H](NC(=O)CNC(=O)OCc1ccccc1)C(=O)NCC(=O)NCC(=O)O [CBZ--Gly--Gln--Gly--Gly] (Cbz-GQGG-OH)
[4]
  Substrate specificity (%) BTG-2: 12%
  Reactivity of substrate with BTG-2 (relative, Table 1): 12
[8]
  Substrate specificity (%) MTGase: 126%
[6]
  Substrate specificity (%) BTG-1: 8%
  Reactivity of substrate with BTG-1 (relative, Table 1): 8
[7]
  Substrate specificity (%) BTG-3: 11%
  Reactivity of substrate with BTG-3 (relative, Table 1): 11

## NC(=O)CC[C@H](NC(=O)CNC(=O)CNC(=O)OCc1ccccc1)C(=O)NCC(=O)O [CBZ--Gly--Gly--Gln--Gly] (Cbz-GGQG-OH)
[4]
  Substrate specificity (%) BTG-2: 58%
  Reactivity of substrate with BTG-2 (relative, Table 1): 58
[8]
  Substrate specificity (%) MTGase: 27%
[6]
  Substrate specificity (%) BTG-1: 23%
  Reactivity of substrate with BTG-1 (relative, Table 1): 23
[7]
  Substrate specificity (%) BTG-3: 60%
  Reactivity of substrate with BTG-3 (relative, Table 1): 60

## [Cl-].[Cl-].[Co+2] [CoCl2]
[1]
  BTG-3 (%) activity with metal ion: 103%
[2]
  BTG-2 (%) activity with metal ion: 103%
[3]
  BTG-1 (%) activity with metal ion: 103%

## O=C(O)CN(CCN(CC(=O)O)CC(=O)O)CC(=O)O [EDTA]
[9]; read-out: BTG-1 (%) activity with inhibitor
  inhibition at 1000 µM: 102%
[10]; read-out: BTG-3 (%) activity with inhibitor
  inhibition at 1000 µM: 99%
[11]; read-out: BTG-2 (%) activity with inhibitor
  inhibition at 1000 µM: 98%

## [Cl][Fe]([Cl])[Cl] [FeCl3]
[1]
  BTG-3 (%) activity with metal ion: 106%
[2]
  BTG-2 (%) activity with metal ion: 104%
[3]
  BTG-1 (%) activity with metal ion: 96%

## NCC(=O)N[C@@H](CCC(N)=O)C(=O)NCC(=O)O [Gly--Gln--Gly, glycylglutaminyl glycine] (H-Gly-Gln-Gly-OH)
[4]
  Reactivity of substrate with BTG-2 (relative, Table 1): 0
[5]
  Reactivity of synthetic substrate with the BTGases (in words): No BTGase reacts
[6]
  Reactivity of substrate with BTG-1 (relative, Table 1): 0
[7]
  Reactivity of substrate with BTG-3 (relative, Table 1): 0

## [Cl-].[K+] [KCl]
[1]
  BTG-3 (%) activity with metal ion: 105%
[2]
  BTG-2 (%) activity with metal ion: 99%
[3]
  BTG-1 (%) activity with metal ion: 96%

## [Cl-].[Cl-].[Mg+2] [MgCl2]
[1]
  BTG-3 (%) activity with metal ion: 103%
[2]
  BTG-2 (%) activity with metal ion: 104%

## [Cl][Mn][Cl] [MnCl2]
[1]
  BTG-3 (%) activity with metal ion: 97%
[2]
  BTG-2 (%) activity with metal ion: 97%

## [Cl-].[Na+] [NaCl]
[1]
  BTG-3 (%) activity with metal ion: 101%
[2]
  BTG-2 (%) activity with metal ion: 102%
[3]
  BTG-1 (%) activity with metal ion: 99%

## [Cl][Ni][Cl] [NiCl2]
[2]
  BTG-2 (%) activity with metal ion: 100%

## O=S(=O)(F)Cc1ccccc1 [PMSF, phenylmethylsulfonyl fluoride]
[9]; [12]
  BTG-1 (%) activity with inhibitor: 104%
[10]; [12]
  BTG-3 (%) activity with inhibitor: 101%
[11]; [12]
  BTG-2 (%) activity with inhibitor: 95%

## CC(=O)[O-].CC(=O)[O-].[Pb+2] [Pb(CH3 COO)2]
[1]
  BTG-3 (%) activity with metal ion: 100%
[2]
  BTG-2 (%) activity with metal ion: 97%
[3]
  BTG-1 (%) activity with metal ion: 97%

## [Cl-].[Cl-].[Sr+2] [SrCl2]
[1]
  BTG-3 (%) activity with metal ion: 100%
[2]
  BTG-2 (%) activity with metal ion: 101%
[3]
  BTG-1 (%) activity with metal ion: 100%
